Experimental data from patent US12221631B2, “Engineered migrasome, method for preparing same, and uses thereof” (priority 2021, dated 2025).

What was measured:
[1] = system: Tspan4-GFP-expressing NRK cells; test: Formation of engineered migrasomes after latrunculin A treatment and step-wise hypotonic stimulation; format: cell-based, rat; details: latrunculin A 0.25, 0.5, 1 μM in DPBS 10 min, then three-step hypotonic stimulation; promotion dose-dependent
Excerpt: The results after step-wise hypotonic treatment were shown in FIG. 2A, and the statistical results of the number of engineered migrasomes produced per cell were shown in FIG. 2B.

[2] = system: Tspan4-GFP-expressing NRK cells; details: sodium chloride in DPBS replaced by chloride of the cation at equal molar concentration; five-step hypotonic stimulation
Method: Next, the effect of different cations on the formation of engineered migrasomes was tested.

SMILES	number of engineered migrasomes produced per cell [1]	ability to promote the formation of engineered migrasomes [2]
C/C1=C/C(=O)O[C@@H]2C[C@@H](CC[C@H](C)/C=C\C=C\CC1)O[C@@](O)([C@@H]1CSC(=O)N1)C2 [latrunculin A]	significantly promote an increase in the number of engineered migrasomes	
[Cl-].[Cs+] [cesium ions, cesium chloride]		significantly stronger ability
C[N+](C)(C)CCO.[Cl-] [choline ions, choline chloride]		significantly stronger ability
[Cl-].[K+] [potassium ions, potassium chloride]		significantly stronger ability
[Cl-].[Na+] [sodium ions, sodium chloride]		relatively weak ability
